Source: publication PMC7756656, “Discovery of Homobivalent Bitopic Ligands of the Cannabinoid CB2 Receptor” (Chemistry (Weinheim an Der Bergstrasse, Germany), 2020)

Legend:
[1] = biological target: T1, CB2R (hCB2R) (Homo sapiens, UniProt P34972); assay: biochemical; type: HEK-293T membranes; set-up: [3H]CP-55,940 competition radioligand binding, membrane filtration, scintillation counting
T1 construct: gene CNR2; expressed in HEK-293T cells
From the text: (§1) In vitro binding affinities of the alleged bitopic ligands 18–29 (Table 1) and the corresponding monovalent counterparts 6–17 (Table S1) were obtained from [^3H]CP‐55,940 competition‐binding assays using membrane fractions of the human CB1R and CB2R, respectively, expressed in HEK‐293T cells. […] Addition of the second pharmacophore makes bivalent ligands capable of binding CB2R in a selective manner. Optimal spacer length for N1‐ and N2‐ethyl derivatives is from 10 (n=8) to 14 (n=12) […]. S23 Aldrich, Madrid, Spain). Membranes were resuspended in the corresponding buffer and were incubated (90 min at 30 °C) with the radioligand and each compound at a high concentration (40 μM) with the purpose of determining the % of radioligand displacement. […] Nonspecific binding was determined with 10 μM [compound left out] (Sigma-Aldrich, Madrid, Spain) and total radioligand binding by incubation with the membranes in the absence of any compound. Filtration was performed by a Harvester filtermate (PerkinElmer, Boston, MA, USA) with Filtermat A GF/C filters pretreated with polyethylenimine 0.05%. After filtering, the filter was washed nine times with binding buffer and dried, and a melt-on scintillation sheet (MeltilexTM A, PerkinElmer, Boston, MA, USA) was melted onto it. Then, radioactivity was quantified by a […] (Wallac MicroBeta Trilux, PerkinElmer, Boston, MA, USA). Competition binding data were analyzed by using GraphPad Prism, version 5.02 (GraphPad Software Inc., San Diego, CA, USA), and Ki values are expressed as the mean ± SEM of at least three experiments performed in triplicate for each. 2.2- cAMP determination assays. Determination of cAMP levels in HEK293 cells stably expressing the CB2R was performed using the Lance-Ultra cAMP kit (PerkinElmer) according to the manufacturer’s instructions. Briefly, HEK293 cells expressing the CB2R were dispensed in white 384-well microplates at a density of 5.000 cells per well. Finally, cells were incubated for 60 min at room temperature with HTRF assay reagents, and fluorescence at 665 nm was analyzed on a PHERAstar Flagship microplate reader equipped with an HTRF optical module (BMG Labtech). Data analysis was made based on the fluorescence ratio emitted by the labeled cAMP probe (665 nm) over the light emitted by the europium cryptate-labeled anti-cAMP antibody (620 nm). A standard curve was used to calculate cAMP concentration. Forskolin stimulated cAMP levels were normalized to 100%. Data was analyzed by using […]

[2] = biological target: T2, CB1R (hCB1R) (Homo sapiens, UniProt P21554); assay: biochemical; type: HEK-293T membranes; set-up: [3H]CP-55,940 competition radioligand binding, membrane filtration, scintillation counting
T2 construct: gene CNR1; expressed in HEK-293T cells; membrane fractions
T2 sequence (P21554 whole entry): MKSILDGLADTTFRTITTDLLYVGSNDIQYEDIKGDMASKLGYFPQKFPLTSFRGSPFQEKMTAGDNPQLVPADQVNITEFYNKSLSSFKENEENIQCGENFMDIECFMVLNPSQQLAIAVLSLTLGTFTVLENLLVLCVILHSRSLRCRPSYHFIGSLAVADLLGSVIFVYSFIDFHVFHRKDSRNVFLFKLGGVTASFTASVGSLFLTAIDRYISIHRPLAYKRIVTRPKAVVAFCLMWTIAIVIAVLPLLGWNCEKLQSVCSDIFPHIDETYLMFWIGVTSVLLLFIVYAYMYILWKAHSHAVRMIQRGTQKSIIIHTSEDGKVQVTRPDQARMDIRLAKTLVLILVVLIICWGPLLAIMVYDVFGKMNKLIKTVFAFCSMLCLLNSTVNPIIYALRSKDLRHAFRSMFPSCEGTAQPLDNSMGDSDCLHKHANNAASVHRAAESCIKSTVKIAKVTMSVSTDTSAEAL
From the text: as §1

[3] = biological target: T1, CB2R (hCB2R); assay: [3H]CP-55, […] competition binding, HEK-293T membranes; conditions: read-out: CB2R Ki [μM]^[b]
[4] = biological target: T2, CB1R (hCB1R); assay: as above; conditions: read-out: CB1R Ki [μM]^[b]
[5] = biological target: T1, CB2R (hCB2R); assay: inhibition of forskolin-induced cAMP, HEK-293T cells; type: cell-based; conditions: read-out: Wild type / pEC50 (converted)

T1 sequence (P34972 whole entry): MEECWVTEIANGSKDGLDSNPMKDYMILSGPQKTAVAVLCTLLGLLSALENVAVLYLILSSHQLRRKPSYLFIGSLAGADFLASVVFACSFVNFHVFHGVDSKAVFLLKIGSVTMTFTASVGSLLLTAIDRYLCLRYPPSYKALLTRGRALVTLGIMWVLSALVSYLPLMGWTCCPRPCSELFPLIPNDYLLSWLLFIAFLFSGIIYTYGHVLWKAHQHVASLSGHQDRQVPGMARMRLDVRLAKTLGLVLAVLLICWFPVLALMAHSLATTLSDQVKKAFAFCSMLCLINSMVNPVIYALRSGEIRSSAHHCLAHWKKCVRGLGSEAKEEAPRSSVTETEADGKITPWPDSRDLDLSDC

SMILES	Ki [1]	Ki [2]	Ki [3]	Ki [4]	EC50 [5]
CCCCCCOc1cc(C(C)(C)CCCCCC)cc2c1-c1c(cnn1CC)C(C)(C)O2 [compound 6, 7-(1,1-Dimethylheptyl)-1-ethyl-9-hexyloxy1,4-Dihydro-4,4-dimethylchromeno[4,3-c]pyrazole]	> 40 µM	> 40 µM	–	–	–
CCCCCCOc1cc(C(C)(C)CCCCCC)cc2c1-c1nn(CC)cc1C(C)(C)O2 [compound 7, 7-(1,1-Dimethylheptyl)-2-ethyl-9-hexyloxy-2,4-dihydro-4,4-dimethylchromeno[4,3-c]pyrazole]	> 40 µM	> 40 µM	–	–	–
CCCCCCCCOc1cc(C(C)(C)CCCCCC)cc2c1-c1c(cnn1CC)C(C)(C)O2 [compound 8, 7-(1,1-Dimethylheptyl)-1-ethyl-1,4-dihydro-4,4-dimethyl-9-octyloxychromeno[4,3-c]pyrazole]	> 40 µM	> 40 µM	–	–	–
CCCCCCCCOc1cc(C(C)(C)CCCCCC)cc2c1-c1nn(CC)cc1C(C)(C)O2 [compound 9, 7-(1,1-Dimethylheptyl)-2-ethyl-2,4-dihydro-4,4-dimethyl-9-octyloxychromeno[4,3-c]pyrazole]	> 40 µM	> 40 µM	–	–	–
CCCCCCCCCCOc1cc(C(C)(C)CCCCCC)cc2c1-c1c(cnn1CC)C(C)(C)O2 [compound 10, 9-Decyloxy-7-(1,1-dimethylheptyl)-1-ethyl-1,4-dihydro-4,4-dimethylchromeno[4,3-c]pyrazole]	> 40 µM	> 40 µM	–	–	–
CCCCCCCCCCOc1cc(C(C)(C)CCCCCC)cc2c1-c1nn(CC)cc1C(C)(C)O2 [compound 11, 9-Decyloxy-7-(1,1-dimethylheptyl)-2-ethyl-2,4-dihydro-4,4-dimethylchromeno[4,3-c]pyrazole]	> 40 µM	> 40 µM	–	–	–
CCCCCCCCCCCCOc1cc(C(C)(C)CCCCCC)cc2c1-c1c(cnn1CC)C(C)(C)O2 [compound 12, 7-(1,1-Dimethylheptyl)-9-dodecyloxy-1-ethyl-1,4-dihydro-4,4-dimethylchromeno[4,3-c]pyrazole]	> 40 µM	> 40 µM	–	–	–
CCCCCCCCCCCCOc1cc(C(C)(C)CCCCCC)cc2c1-c1nn(CC)cc1C(C)(C)O2 [compound 13, 7-(1,1-Dimethylheptyl)-9-dodecyloxy-2-ethyl-2,4-dihydro-4,4-dimethylchromeno[4,3-c]pyrazole]	> 40 µM	> 40 µM	–	–	–
CCCCCCCCCCCCCCOc1cc(C(C)(C)CCCCCC)cc2c1-c1c(cnn1CC)C(C)(C)O2 [compound 14, 7-(1,1-Dimethylheptyl)-1-ethyl-1,4-dihydro-4,4-dimethyl-9-tetradecyloxychromeno[4,3-c]pyrazole]	> 40 µM	> 40 µM	–	–	–
CCCCCCCCCCCCCCCCOc1cc(C(C)(C)CCCCCC)cc2c1-c1c(cnn1CC)C(C)(C)O2 [compound 16, 7-(1,1-Dimethylheptyl)-1-ethyl-9-hexadecyloxy-1,4-dihydro-4,4-dimethylchromeno[4,3-c]pyrazole]	> 40 µM	> 40 µM	–	–	–
CCCCCCC(C)(C)c1cc(OCCCCCCOc2cc(C(C)(C)CCCCCC)cc3c2-c2c(cnn2CC)C(C)(C)O3)c2c(c1)OC(C)(C)c1cnn(CC)c1-2 [compound 18, bivalent chromenopyrazole 18 (R1 = N1-Et, n = 4)]	–	–	28.1 ± 1.6 µM	> 40 µM	–
CCCCCCC(C)(C)c1cc(OCCCCCCOc2cc(C(C)(C)CCCCCC)cc3c2-c2nn(CC)cc2C(C)(C)O3)c2c(c1)OC(C)(C)c1cn(CC)nc1-2 [compound 19, bivalent chromenopyrazole 19 (R1 = N2-Et, n = 4)]	–	–	12.4 ± 2 µM	> 40 µM	–
CCCCCCC(C)(C)c1cc(OCCCCCCCCOc2cc(C(C)(C)CCCCCC)cc3c2-c2c(cnn2CC)C(C)(C)O3)c2c(c1)OC(C)(C)c1cnn(CC)c1-2 [compound 20, bivalent chromenopyrazole 20 (R1 = N1-Et, n = 6)]	–	–	2.2 ± 0.7 µM	> 40 µM	–
CCCCCCC(C)(C)c1cc(OCCCCCCCCCCOc2cc(C(C)(C)CCCCCC)cc3c2-c2nn(CC)cc2C(C)(C)O3)c2c(c1)OC(C)(C)c1cn(CC)nc1-2 [compound 23, bivalent chromenopyrazole 23 (R1 = N2-Et, n = 8)]	–	–	5.8 ± 1.5 µM	> 40 µM	–
CCCCCCC(C)(C)c1cc(OCCCCCCCCCCCCOc2cc(C(C)(C)CCCCCC)cc3c2-c2c(cnn2CC)C(C)(C)O3)c2c(c1)OC(C)(C)c1cnn(CC)c1-2 [compound 24, bivalent chromenopyrazole 24 (R1 = N1-Et, n = 10)]	–	–	0.4 ± 0.14 µM	> 40 µM	0.0631 µM
CCCCCCC(C)(C)c1cc(OCCCCCCCCCCCCOc2cc(C(C)(C)CCCCCC)cc3c2-c2nn(CC)cc2C(C)(C)O3)c2c(c1)OC(C)(C)c1cn(CC)nc1-2 [compound 25, bivalent chromenopyrazole 25 (R1 = N2-Et, n = 10)]	–	–	0.3 ± 0.1 µM	> 40 µM	0.0631 µM
CCCCCCC(C)(C)c1cc(OCCCCCCCCCCCCCCOc2cc(C(C)(C)CCCCCC)cc3c2-c2c(cnn2CC)C(C)(C)O3)c2c(c1)OC(C)(C)c1cnn(CC)c1-2 [compound 26]	–	–	0.8 ± 0.1 µM	> 40 µM	0.316 µM
CCCCCCC(C)(C)c1cc(OCCCCCCCCCCCCCCCCOc2cc(C(C)(C)CCCCCC)cc3c2-c2nn(CC)cc2C(C)(C)O3)c2c(c1)OC(C)(C)c1cn(CC)nc1-2 [compound 29, bivalent chromenopyrazole 29 (R1 = N2-Et, n = 14)]	–	–	2.12 ± 0.21 µM	> 40 µM	–
